Measurements published in article PMC11259170, “Small-molecule probe for IBD risk variant GPR65 I231L alters cytokine signaling networks through positive allosteric modulation” (Science Advances, 2024).
Like-named read-outs stand apart in the source and are kept apart here.

Experiments:
hGPR65 = target: T1, hGPR65 (Homo sapiens, UniProt Q8IYL9); experiment: cAMP detection in HeLa expression cell line, hGPR65; format: cell-based; details: for Emax: HeLa, read-out: hGPR Max Activity %
T1 construct: expressed in transfected cells; host or cells: HeLa (ATCC CCL-2), lentiviral transduction, pLX317
Protocol: (§1) HeLa stable expression cell lines were produced by lentiviral transduction. Briefly, lentiviral plasmids for each GPCR with a C-terminal V5 Tag ([…]) were made in a pLX317 backbone using competent Escherichia coli (New England Biolabs, C3050H). Lenti-X 293 T (Takara, 632810) cells were transfected with the lentiviral plasmids to produce virus. Low-passage HeLa cells (American Type Culture Collection, CCL-2) were then transduced with lentivirus. After 48 hours, HeLa cells were cultured under selection with puromycin (3 μg/ml) and allowed to recover and expand before storing stocks in liquid nitrogen.
(§2) cAMP was measured in cells using the Lance Ultra cAMP Kit. HeLa cells were cultured under puromycin (3 μg/ml) selection. One day before the experiment, cells were seeded in T75 flasks and allowed to adhere overnight. On the day of the experiment, cells were washed twice with Dulbecco’s PBS and lifted using prewarmed 1× versene solution (Gibco, 15040066). Cells were counted in HBSS (Gibco, 14025092) and then resuspended in stimulation buffer prepared according to the manufacturer’s instructions and adjusted to pH 7.2 using 1 M sodium hydroxide. Cells were added to the plate at a density of 1500 cells per well in white opaque 384-well assay ready microplates containing 100 nl of 10 mM compound in DMSO. Cells were stimulated for 30 min at RT, then lysed and incubated with detection reagents for 1 hour in the dark at RT. Plates were read on BMG Labtech PHERAstar FSX (excitation, 337 nm; emission, 620 and 665 nm). Data analysis was performed using GraphPad Prism.

mGPR65 = target: T2, mGPR65 (Mus musculus, UniProt Q61038); experiment: cAMP detection in HeLa expression cell line, mGPR65; format: cell-based; details: for Emax: HeLa, read-out: mGPR Max Activity %
T2 construct: expressed in transfected cells; host or cells: HeLa (ATCC CCL-2), lentiviral transduction, pLX317
Protocol: as §1, §2

[1] = test system: GFP-expressing HeLa cells; experiment: cAMP detection in HeLa expression cell line, GFP control; format: cell-based, human; details: Homo sapiens, HeLa, NA = no activity; for Emax: relative to 100uM forskolin (100%) and DMSO (0%), read-out: GFP Max Activity %
Protocol: as §1, §2

[2] = 1st hGPR column pair, NA = no activity, read-out: hGPR EC50
[3] = 2nd hGPR column pair, NA = no activity, read-out: hGPR EC50
[4] = 1st hGPR column pair, relative to 100uM forskolin (100%) and DMSO (0%), NA = no activity
[5] = 2nd hGPR column pair, relative to 100uM forskolin (100%) and DMSO (0%), NA = no activity
[6] = 1st mGPR column pair, NA = no activity, read-out: mGPR EC50
[7] = 2nd mGPR column pair, NA = no activity, read-out: mGPR EC50
[8] = 2nd mGPR column pair, relative to 100uM forskolin (100%) and DMSO (0%), NA = no activity
[9] = relative to 100uM forskolin (100%) and DMSO (0%), NA = no activity
[10] = mGPR EC50 (uM), 2nd mGPR column pair, NA = no activity
[11] = mGPR EC50 (uM), NA = no activity

T2 sequence (Q61038 whole entry): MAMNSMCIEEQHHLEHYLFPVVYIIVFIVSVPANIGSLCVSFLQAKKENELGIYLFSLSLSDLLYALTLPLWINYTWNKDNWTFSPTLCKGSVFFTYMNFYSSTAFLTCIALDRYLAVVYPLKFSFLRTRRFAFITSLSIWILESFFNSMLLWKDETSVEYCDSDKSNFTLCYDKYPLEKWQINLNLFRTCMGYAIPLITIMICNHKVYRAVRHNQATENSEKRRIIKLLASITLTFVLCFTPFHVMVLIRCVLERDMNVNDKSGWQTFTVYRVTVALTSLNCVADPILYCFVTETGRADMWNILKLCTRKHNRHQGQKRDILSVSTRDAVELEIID
T1 sequence (Q8IYL9 whole entry): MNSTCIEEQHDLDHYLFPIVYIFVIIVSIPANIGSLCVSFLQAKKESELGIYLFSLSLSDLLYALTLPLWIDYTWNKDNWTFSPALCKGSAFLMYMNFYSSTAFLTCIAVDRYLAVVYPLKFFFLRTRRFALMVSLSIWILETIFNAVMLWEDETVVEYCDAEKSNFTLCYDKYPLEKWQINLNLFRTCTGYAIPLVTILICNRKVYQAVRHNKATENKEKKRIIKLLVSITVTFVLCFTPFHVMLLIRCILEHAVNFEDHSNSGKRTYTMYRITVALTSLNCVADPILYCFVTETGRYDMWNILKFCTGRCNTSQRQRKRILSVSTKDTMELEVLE

Compound	EC50 (hGPR65; [2])	EC50 (hGPR65; [3])	Emax (hGPR65; [4])	Emax (hGPR65; [5])	EC50 (mGPR65; [6])	EC50 (mGPR65; [7])	Emax (mGPR65; [8])	Emax (mGPR65; [9])	EC50 ([1]; 2nd GFP column pair)	Emax ([1]; 2nd GFP column pair)	EC50 ([1]; 1st GFP column pair)	Emax ([1]; 1st GFP column pair)	also measured
Cc1cnc(NC(=O)c2cnn3c(O)cc(-c4ccc(COC(C)C)cc4)nc23)cn1 [BRD5073]	2.16 µM	3.05 µM	73.6%	65.1%	2.27 µM	2.78 µM	59.1%	71%	3530 nM	2.17%			
Cc1ccc(NC(=O)c2cnn3c(O)cc(-c4ccc(COC(C)C)cc4)nc23)cn1 [BRD5071]	0.991 µM	1.89 µM	74.2%	60.4%	1.54 µM	1.61 µM	61.2%	60.5%			24900 nM	8.1%	
COc1cc(-c2cc(O)n3ncc(C(=O)Nc4ccc(C)cc4)c3n2)ccc1F [BRD5066]	1.47 µM	1.84 µM	67%	70.4%	1.15 µM	0.781 µM	29.4%	31.3%	6080 nM	1.99%			
COCc1ccc(-c2cc(O)n3ncc(C(=O)Nc4ccccc4)c3n2)cc1 [BRD9876]			81.6%	79.5%			34.4%	45.3%	25700 nM	3.97%	3620 nM	1.96%	EC50 (hGPR65; hGPR EC50 (uM), NA = no activity): 8.06 µM; EC50 (hGPR65; hGPR EC50, NA = no activity): 12 µM; cAMP production relative to BRD2813, hGPR65 (hGPR65; pH 7.2): detrimental to potency; EC50 (mGPR65; [10]): 4.76 µM; EC50 (mGPR65; [11]): 4.06 µM; cAMP production relative to BRD2813, mGPR65 (mGPR65; pH 7.2): decreased potency
Cc1ccc(NC(=O)c2cnn3c(O)cc(-c4cnc(N5CCN(C)CC5)c(Cl)c4)nc23)cc1 [BRD5069]				1.75%			42.5%	63.3%			1570 nM	2.17%	EC50 (hGPR65; hGPR EC50, NA = no activity): 6.24 µM; EC50 (mGPR65; [10]): 5.03 µM; EC50 (mGPR65; [11]): 0.65 µM
Cc1ccc(NC(=O)c2cnn3c(O)cc(-c4ccc(N5CCC(=O)CC5)cc4)nc23)cc1 [BRD8536]	4.05 µM	5.53 µM	65.7%	63.9%	0.98 µM	2.81 µM	52.9%	63.5%			802 nM	1.86%	
CCS(=O)(=O)c1ccc(NC(=O)c2cnn3c(O)cc(-c4ccc(COC)cc4)nc23)cc1 [BRD7157]					10.7 µM	14.6 µM	19.6%	64.9%	16700 nM	6.57%			EC50 (hGPR65; NA = no activity, read-out: hGPR EC50): 27.2 µM; hGPR Max Activity (hGPR65; [9]): 17.41%; EC50 (mGPR65; 3rd mGPR column pair, NA = no activity, read-out: mGPR EC50): 4.47 µM; mGPR Max Activity (mGPR65; [9]): 44.17%
Cc1ccc(NC(=O)c2cnn3c(O)cc(-c4cccc(C)c4)nc23)cc1 [BRD1420]	3.71 µM		22.9%		0.471 µM			2.06%			317 nM	2.36%	
COc1cccc(-c2cc(O)n3ncc(C(=O)Nc4ccc(C)cc4)c3n2)c1 [BRD6202]	1.3 µM	1.75 µM	72.3%	73.6%	0.378 µM	0.451 µM	58.8%	63.3%	195 nM	3.9%	3170 nM	1.48%	
